Target: T1, cloned human 5-HT6 receptor (Homo sapiens, UniProt P50406)
T1 construct: host or cells: HeLa cells, G-418 selection, membrane preparation
Test: 5-HT6 Receptor Binding Assay ([3H]-LSD radioligand, SPA)
Settings: read-out: 5HT6 % inh @ 1 uM
Experimental: 5-HT6 Receptor Binding Assay
Hela cells containing the cloned human 5-HT6 receptor were acquired from Dr. David R. Sibley's laboratory in National Institute of Health (see Sibley, D. R., J. Neurochemistry, 66, 47-56, 1996). Cells were grown in high glucose Dulbecco's modified Eagle's medium, supplemented with L-glutamine, 0.5% sodium pyruvate, 0.3% penicillin-streptomycin, 0.025% G-418 and 5% Gibco fetal bovine serum and then were harvested, when confluent, in cold phosphate buffered saline.
Harvested intact cells were washed once in cold phosphate-buffered saline. The cells were pelleted and resuspended in 100 ml of cold 50 mM Tris, 5 mM EDTA and 5 mM EGTA, pH 7.4. Homogenization was with a Vir Tishear generator, 4 cycles for 30 seconds each at setting 50. The homogenized cells were centrifuged at […] for 10 minutes and the supernatant was removed. The pellet was resuspended in 100 ml of the above buffer and rehomogenized for 2 cycles. The rehomogenized cells were then centrifuged at […] for 10 minutes and the supernatant was removed. The combined supernatant (200 ml) was centrifuged at 23,000 RPM (80,000×g) for 1 hour in a Beckman Rotor (42.1 Ti). The membrane pellet was resuspended in […] of assay buffer containing HEPES 20 mM, MgCl2 10 mM, NaCl 150 mM, EDTA 1 mM, pH 7.4 and stored frozen in aliqouts at −70° C.
The radioligand binding assay used [^3H]-lysergic acid diethylamide (LSD). The assay was carried out in Wallac 96-well sample plates by the addition of 11 μl of the test sample at the appropriate dilution (the assay employed 11 serial concentrations of samples run in duplicate), 11 μl of radioligand, and 178 μl of a washed mixture of WGA-coated SPA beads and membranes in binding buffer. The plates were shaken for about 5 minutes and then incubated at room temperature for 1 hour. The plates were then loaded into counting cassettes and counted in a Wallac MicroBeta Trilux scintillation counter.
Binding Constant Determination may be obtained by performing serial dilutions, e.g., eleven dilutions, of test compounds into assay plates using the PE/Cetus Pro/Pette pipetter. These dilutions are followed by radioligand and the bead-membrane mixture prepared as described above. After obtaining the specifically bound cpm, the data are fit to a one-site binding model using GraphPad Prism ver. 2.0. Estimated IC50 values are converted to Ki values using the Cheng-Prusoff equation (Cheng, Y. C. et al., Biochem. Pharmacol., 22, 3099-108, 1973).

T1 sequence (P50406 whole entry): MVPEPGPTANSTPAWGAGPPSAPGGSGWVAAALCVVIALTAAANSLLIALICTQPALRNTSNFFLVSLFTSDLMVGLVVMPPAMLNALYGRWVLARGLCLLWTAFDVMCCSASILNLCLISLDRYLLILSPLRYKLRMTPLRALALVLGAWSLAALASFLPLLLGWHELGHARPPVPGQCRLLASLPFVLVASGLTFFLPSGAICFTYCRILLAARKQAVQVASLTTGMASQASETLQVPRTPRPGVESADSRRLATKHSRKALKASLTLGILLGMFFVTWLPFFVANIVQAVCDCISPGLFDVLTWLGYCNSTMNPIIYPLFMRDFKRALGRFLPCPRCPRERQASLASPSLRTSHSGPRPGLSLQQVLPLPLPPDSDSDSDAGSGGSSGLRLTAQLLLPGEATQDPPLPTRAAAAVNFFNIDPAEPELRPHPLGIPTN

inhibition at 1 µM [%]	Structure (SMILES)
90.6	O=C(c1cccc(N2CCCNCC2)n1)N1CCC[C@@H](Oc2ccccc2F)C1 [Example 47, (6-[1,4]Diazepan-1-yl-pyridin-2-yl)-[(R)-3-(2-fluoro-phenoxy)-piperidin-1-yl]-methanone]
97.8	CN1CCN(c2cccc(C(=O)N3CC=C(c4ccccc4F)CC3)n2)CC1 [Example 21, [4-(2-Fluoro-phenyl)-3,6-dihydro-2H-pyridin-1-yl]-[6-(4-methyl-piperazin-1-yl)-pyridin-2-yl]-methanone]
97.8	CN1CCN(c2cccc(C(=O)N3CCC(Oc4ccc(F)cc4F)CC3)n2)CC1 [Example 109, [4-(2,4-Difluoro-phenoxy)-piperidin-1-yl]-[6-(4-methyl-piperazin-1-yl)-pyridin-2-yl]-methanone]
98.5	Cc1ccccc1C1CCN(S(=O)(=O)c2cccc(N3CCN(C)CC3)n2)CC1 [Example 78, 1-Methyl-4-[6-(4-o-tolyl-piperidine-1-sulfonyl)-pyridin-2-yl]-piperazine]
84.8	Cc1cccc(C2CN(C(=O)c3cccc(N4CCN(C)CC4)n3)C2)c1 [Example 91, [6-(4-Methyl-piperazin-1-yl)-pyridin-2-yl]-(3-m-tolyl-azetidin-1-yl)-methanone]
97.2	CN1CCN(c2cccc(C(=O)N3CCC(F)(c4ccccc4F)CC3)n2)CC1 [Example 107, [4-Fluoro-4-(2-fluoro-phenyl)-piperidin-1-yl]-[6-(4-methyl-piperazin-1-yl)-pyridin-2-yl]-methanone]
97	O=S(=O)(c1cccc(N2CCNCC2)n1)N1CCC(c2ccccc2F)CC1 [Example 51, 1-{6-[4-(2-Fluoro-phenyl)-piperidine-1-sulfonyl]-pyridin-2-yl}-piperazine]
73.8	Cc1ccc([C@@H](C)N(C)C(=O)c2cccc(N3CCN(C)CC3)n2)cc1 [Example 60, 6-(4-Methyl-piperazin-1-yl)-pyridine-2-carboxylic acid methyl-((R)-1-p-tolyl-ethyl)-amide]
101	CN1CCN(c2cccc(C(=O)N3CCC(Cc4ccccc4F)CC3)n2)CC1 [Example 115, [4-(2-Fluoro-benzyl)-piperidin-1-yl]-[6-(4-methyl-piperazin-1-yl)-pyridin-2-yl]-methanone]
92.3	CN1CCCN(c2cccc(C(=O)N3CCCC[C@@H]3c3ccccc3F)n2)CC1 [Example 89, [(R)-2-(2-Fluoro-phenyl)-piperidin-1-yl]-[6-(4-methyl-[1,4]diazepan-1-yl)-pyridin-2-yl]-methanone]
93.2	CN1CCC(c2cccc(C(=O)N3CCC(Oc4cccc(F)c4)CC3)n2)C1 (centres unmarked) [Example 16, [4-(3-Fluoro-phenoxy)-piperidin-1-yl]-[6-(1-methyl-pyrrolidin-3-yl)-pyridin-2-yl]-methanone]
84	Cc1ccccc1OC1CCN(C(=O)c2cccc(C3CCN(C)CC3)n2)CC1 [Example 95, (1′-Methyl-1′,2′,3′,4′,5′,6′-hexahydro-[2,4′]bipyridinyl-6-yl)-(4-o-tolyloxy-piperidin-1-yl)-methanone]
98.5	CN1CCN(c2cccc(C(=O)N3CCCC(c4ccccc4F)CC3)n2)CC1 (centres unmarked) [Example 116, [4-(2-Fluoro-phenyl)-azepan-1-yl]-[6-(4-methyl-piperazin-1-yl)-pyridin-2-yl]-methanone]
95.9	Cc1ccccc1O[C@@H]1CCN(C(=O)c2cccc(N3CCCN(C)CC3)n2)C1 [Example 53, [6-(4-Methyl-[1,4]diazepan-1-yl)-pyridin-2-yl]-((R)-3-o-tolyloxy-pyrrolidin-1-yl)-methanone]
97.8	CN1CCC(c2cccc(C(=O)N3CCC(Oc4ccccc4F)CC3)n2)C1 (centres unmarked) [Example 113, [4-(2-Fluoro-phenoxy)-piperidin-1-yl]-[6-(1-methyl-pyrrolidin-3-yl)-pyridin-2-yl]-methanone]
84.4	CN1CCN(c2cccc(C(=O)N3CC(c4ccccc4F)C3)n2)CC1 [Example 83, [3-(2-Fluoro-phenyl)-azetidin-1-yl]-[6-(4-methyl-piperazin-1-yl)-pyridin-2-yl]-methanone]
90.8	CN1CCN(c2cccc(C(=O)N3CCCC(c4cccc(F)c4)C3)n2)CC1 (centres unmarked) [Example 94, [3-(3-Fluoro-phenyl)-piperidin-1-yl]-[6-(4-methyl-piperazin-1-yl)-pyridin-2-yl]-methanone]
85	CN1CCCN(c2cccc(C(=O)N3CC[C@@H](Oc4ccccc4F)C3)n2)CC1 [Example 46, [(R)-3-(2-Fluoro-phenoxy)-pyrrolidin-1-yl]-[6-(4-methyl-[1,4]diazepan-1-yl)-pyridin-2-yl]-methanone]
98.2	Cc1cccc(F)c1C1CCN(C(=O)c2cccc(C3=CCNC3)n2)CC1 [Example 110, [6-(2,5-Dihydro-1H-pyrrol-3-yl)-pyridin-2-yl]-[4-(2-fluoro-6-methyl-phenyl)-piperidin-1-yl]-methanone]
78.4	CN1CCC(c2cccc(C(=O)N3CCC(Oc4ccccc4F)CC3)n2)CC1 [Example 99, [4-(2-Fluoro-phenoxy)-piperidin-1-yl]-(1′-methyl-1′,2′,3′,4′,5′,6′-hexahydro-[2,4′]bipyridinyl-6-yl)-methanone]
78	CN1CCN(c2cccc(C(=O)N3CC(c4cccc(F)c4)C3)n2)CC1 [Example 84, [3-(3-Fluoro-phenyl)-azetidin-1-yl]-[6-(4-methyl-piperazin-1-yl)-pyridin-2-yl]-methanone]
93.6	Cc1cccc([C@H]2CCCCN2C(=O)c2cccc(N3CCCN(C)CC3)n2)c1 [Example 81]
78.6	Cc1ccccc1C1CCCCN1C(=O)c1cccc(N2CCNCC2)n1 (centres unmarked) [Example 26, (6-Piperazin-1-yl-pyridin-2-yl)-(2-o-tolyl-piperidin-1-yl)-methanone]
91.3	Cc1ccccc1C1CN(C(=O)c2cccc(N3CCN(C)CC3)n2)C1 [Example 82, [6-(4-Methyl-piperazin-1-yl)-pyridin-2-yl]-(3-o-tolyl-azetidin-1-yl)-methanone]
98.8	O=C(c1cccc(N2CCCNCC2)n1)N1CC[C@H](Oc2ccccc2F)C1 [Example 30, (6-[1,4]Diazepan-1-yl-pyridin-2-yl)-[(S)-3-(2-fluoro-phenoxy)-pyrrolidin-1-yl]-methanone]
98.3	Cc1cccc(F)c1C1CCN(C(=O)c2cccc(N3CCN(C)CC3)n2)CC1 [Example 23, [4-(2-Fluoro-6-methyl-phenyl)-piperidin-1-yl]-[6-(4-methyl-piperazin-1-yl)-pyridin-2-yl]-methanone]

Structure (SMILES)	inhibition at 1 µM [%]
CN1CC=C(c2cccc(C(=O)N3CCC(Oc4ccccc4F)CC3)n2)CC1 [Example 18, [4-(2-Fluoro-phenoxy)-piperidin-1-yl]-[1′-methyl-1′,2′,3′,6′-tetrahydro-[2,4′]bipyridinyl-6-yl)-methanone]	95.3
Cc1ccccc1OC1CCN(C(=O)c2cccc(C3=CCN(C)CC3)n2)CC1 [Example 98, (1′-Methyl-1′,2′,3′,6′-tetrahydro-[2,4′]bipyridinyl-6-yl)-(4-o-tolyloxy-piperidin-1-yl)-methanone]	99.1
CN1CC=C(c2cccc(C(=O)N3CCC(Oc4ccccc4Cl)CC3)n2)CC1 [Example 100, [4-(2-Chloro-phenoxy)-piperidin-1-yl]-(1′-methyl-1′,2′,3′,6′-tetrahydro-[2,4′]bipyridinyl-6-yl)-methanone]	102

From patent US20090197859A1 (Pfizer Inc., priority 2008, published 2009)
